Measured values published in the supplement of paper PMC10307832.

Assays:
Assay in all cases: relative viability (nuclei count vs DMSO), 5 days (fraction); higher = more cells survive
Tosedostat + Phenformin = compound: CC(C)C[C@@H](C(=O)N[C@H](C(=O)OC1CCCC1)c1ccccc1)[C@H](O)C(=O)NO [Tosedostat] + N=C(N)NC(=N)NCCc1ccccc1 [Phenformin] (partner 250 µM)
In short: (§1)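 After 5 days of treatment, lung cancer cells in 1536-well plates were fixed and stained in a single step (final 0.05% Triton X-100, 1% formaldehyde, 1 ug/ml Hoechst) and their nuclei counted on 4× images. Treatment had been applied by pin tool the day after seeding as one drug alone or as a fixed anchor-drug dose with five library-drug doses (not always all listed) in √10 steps. Relative viability is the nuclei count of treated wells divided by that of vehicle wells, and values are medians of duplicate plates.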

Tosedostat + Linsitinib = compound: CC(C)C[C@@H](C(=O)N[C@H](C(=O)OC1CCCC1)c1ccccc1)[C@H](O)C(=O)NO [Tosedostat] + C[C@]1(O)C[C@@H](c2nc(-c3ccc4ccc(-c5ccccc5)nc4c3)c3c(N)nccn32)C1 [Linsitinib] (partner 1 µM)
In short: as §1

[1] = compound: CC1=NN=C(O1)C2=NN=C(C=C2)N3CCC(CC3)OC4=C(C=CC(=C4)F)Cl + CCNC(=O)c1noc(-c2cc(C(C)C)c(O)cc2O)c1-c1ccc(CN2CCOCC2)cc1 [Luminespib] (partner 0.01 µM)
In short: as §1

Tosedostat + OSI-027 = compound: CC(C)C[C@@H](C(=O)N[C@H](C(=O)OC1CCCC1)c1ccccc1)[C@H](O)C(=O)NO [Tosedostat] + COc1cccc2cc(-c3nc([C@H]4CC[C@H](C(=O)O)CC4)n4ncnc(N)c34)[nH]c12 [OSI-027] (partner 0.5 µM)
In short: as §1

Cell Line | relative viability (Tosedostat + Phenformin; first compound 0.02 µM) | relative viability (Tosedostat + Phenformin; first compound 0.06325 µM) | relative viability (Tosedostat + Phenformin; first compound 0.2 µM) | relative viability (Tosedostat + Phenformin; first compound 0.6325 µM) | relative viability (Tosedostat + Phenformin; first compound 2 µM) | relative viability (Tosedostat + Linsitinib; first compound 0.02 µM) | relative viability (Tosedostat + Linsitinib; first compound 0.06325 µM) | relative viability (Tosedostat + Linsitinib; first compound 0.2 µM) | relative viability (Tosedostat + Linsitinib; first compound 0.6325 µM) | relative viability (Tosedostat + Linsitinib; first compound 2 µM) | relative viability ([1]; first compound 0.253 µM) | relative viability ([1]; first compound 0.8 µM) | relative viability ([1]; first compound 2.53 µM) | relative viability ([1]; first compound 8 µM) | relative viability (Tosedostat + OSI-027; first compound 0.02 µM) | relative viability (Tosedostat + OSI-027; first compound 0.06325 µM) | relative viability (Tosedostat + OSI-027; first compound 0.2 µM) | relative viability (Tosedostat + OSI-027; first compound 0.6325 µM) | relative viability (Tosedostat + OSI-027; first compound 2 µM)
NCI-H1755 | 0.599 | 0.574 | 0.571 | 0.602 | 0.406 | 0.942 | 1.02 | 0.985 | 0.965 | 0.939 | 0.376 | 0.337 | 0.354 | 0.418 | 0.743 | 0.731 | 0.642 | 0.674 | 0.463
LC-2-ad | 0.692 | 0.555 | 0.56 | 0.438 | 0.508 | 0.865 | 0.743 | 0.866 | 0.823 | 0.805 | 0.567 | 0.488 | 0.544 | 0.483 | 1.03 | 0.756 | 0.758 | 0.698 | 0.645
NCI-H1975 | 0.4 | 0.401 | 0.412 | 0.342 | 0.375 | 0.958 | 0.988 | 0.939 | 0.754 | 0.769 | – | – | 0.224 | 0.196 | 0.822 | 0.743 | 0.708 | 0.552 | 0.424
COR-L 105 | 0.517 | 0.465 | 0.447 | 0.399 | 0.363 | 0.841 | 0.876 | 0.778 | 0.662 | 0.653 | 0.622 | 0.812 | 0.691 | 0.625 | 0.605 | 0.731 | 0.647 | 0.606 | 0.62
NCI-H2085 | 0.55 | 0.646 | 0.713 | 0.673 | 0.682 | 0.935 | 0.889 | 0.724 | 0.838 | 0.836 | 0.499 | – | 0.339 | 0.216 | 0.555 | 0.797 | 0.704 | 0.699 | 0.673
NCI-H2087 | 0.473 | 0.413 | 0.329 | 0.28 | 0.22 | 1 | 0.969 | 0.951 | 1 | 0.886 | 0.17 | 0.144 | 0.151 | 0.164 | 0.664 | 0.497 | 0.487 | 0.543 | 0.559
NCI-H322M | 0.756 | 0.705 | 0.72 | 0.704 | 0.708 | 0.8 | 0.902 | 0.894 | 0.877 | 0.839 | 0.815 | 0.796 | 0.726 | 0.648 | 0.606 | 0.571 | 0.567 | 0.556 | 0.509
EMC-BAC-2 | 0.495 | 0.508 | 0.552 | 0.473 | 0.442 | 0.822 | 0.792 | 0.794 | 0.837 | 0.82 | 0.987 | 0.977 | 1.03 | 0.917 | 0.4 | 0.405 | 0.412 | 0.416 | 0.319
NCI-H460 | 0.551 | 0.473 | 0.505 | 0.426 | 0.48 | 0.845 | 0.84 | 0.857 | 0.849 | 0.942 | 0.0224 | 0.0328 | 0.0243 | 0.0233 | 0.817 | 0.604 | 0.595 | 0.647 | 0.679
NCI-H358 | 0.387 | 0.3 | 0.223 | 0.219 | 0.238 | 0.944 | 0.788 | 0.544 | 0.548 | 0.507 | 0.287 | 0.176 | 0.177 | 0.207 | 0.925 | 0.745 | 0.362 | 0.349 | 0.329
NCI-H1944 | 0.21 | 0.194 | 0.217 | 0.196 | 0.211 | 1.17 | 1.14 | 1.28 | 1.12 | 1.02 | 0.45 | 0.417 | 0.483 | 0.402 | 0.424 | 0.401 | 0.422 | 0.381 | 0.38
EPLC-272H | 0.288 | 0.299 | 0.259 | 0.239 | 0.189 | 1.06 | 1.25 | 0.92 | 0.855 | 0.712 | 0.226 | 0.167 | 0.313 | 0.267 | 0.281 | 0.265 | 0.301 | 0.263 | 0.24
NCI-H2023 | 0.397 | 0.38 | 0.382 | 0.351 | 0.359 | 0.659 | 0.619 | 0.594 | 0.65 | 0.587 | 0.376 | 0.389 | 0.336 | 0.253 | 0.431 | 0.383 | 0.328 | 0.251 | 0.231
NCI-H838 | 0.489 | 0.56 | 0.519 | 0.659 | 0.711 | 1.09 | 0.982 | 1.02 | 1.08 | 1.31 | 0.257 | 0.255 | 0.348 | 0.226 | 0.383 | 0.413 | 0.445 | 0.503 | 0.404
NCI-H647 | 0.56 | 0.506 | 0.45 | 0.434 | 0.39 | 1.07 | 1.2 | 1.01 | 1.12 | 1.24 | 0.171 | 0.128 | 0.16 | 0.263 | 0.541 | 0.667 | 0.515 | 0.4 | 0.585
NCI-H1437 | 0.28 | 0.28 | 0.295 | 0.332 | 0.299 | 1.12 | 1.03 | 1 | 0.752 | 0.66 | 0.654 | 0.6 | 0.598 | 0.546 | 0.977 | 0.969 | 0.846 | 0.828 | 0.805
NCI-H3122 | 0.415 | 0.385 | 0.362 | 0.368 | 0.292 | 0.993 | 1 | 1.01 | 1.02 | 1.04 | 0.0576 | 0.108 | 0.0895 | 0.0702 | 1.15 | 0.985 | 1.01 | 0.963 | 0.588
